Measured values from US6037386A, “Composition for inactivating irritants in fluids” (priority 1999, dated 2000).

What was measured:
Staphylococcus aureus = experiment: CFU in glove fingers inoculated with blood containing Staphylococcus aureus (synergistic activity); format: cell-based; conditions: 2 minutes; CHG 450 μg, ZnO 12.5 mg
Method: Synergistic Activity of Zinc Oxide and CHX. CHG, ZnO, and a combination thereof was added to each glove finger. Glove fingers were then inoculated with 0.1 mL of blood containing 10^5 CFU Staphylococcus aureusmL. After 2 minutes, 0.9 mL of LTSB was added, and 0.2 mL of the extract were plated to determine colony counts.
This experiment was carried out using the method described in Example 14.

HBV = experiment: Cidal concentration of CHG (1 minute kill), HBV; format: cell-based
HIV = experiment: Cidal concentration of CHG (1 minute kill), HIV; format: cell-based
[1] = Product formed on mixing zinc salts with CHG / gel formation; format: physicochemical
Method: The following zinc salts were mixed with CHG for 1 hour and observed for the resulting product.

Row | Compound | CFU/glove finger (Staphylococcus aureus) [CFU/glove finger] | cidal concentration for HBV (1 minute kill) (HBV) | cidal concentration for HIV (1 minute kill) (HIV) | gel formation (in words) [1]
1 | N=C(NCCCCCCNC(=N)NC(=N)Nc1ccc(Cl)cc1)NC(=N)Nc1ccc(Cl)cc1 [CHG, chlorhexidine gluconate] | 1420 | the same as that for Staphylococcus aureus | the same as that for Staphylococcus aureus | 
2 | zinc gluconate |  |  |  | forming a gel matrix when mixed with water or alcohol
